# According to PMC11277489, “Novel Piperazine Derivatives of Vindoline as Anticancer Agents” (International Journal of Molecular Sciences, 2024):
# What was measured:
# [1] = system: RXF 393; experiment: NCI60 one-dose screen (10 μM), Renal Cancer; assay type: cell-based, human; details: Homo sapiens; 10 μM; RXF 393, Renal Cancer; read-out: Growth percent rate
# [2] = system: UACC-257; experiment: NCI60 one-dose screen (10 μM), Melanoma; assay type: cell-based; details: Homo sapiens; 10 μM; UACC-257, Melanoma; read-out: Growth percent rate
# [3] = system: SNB-75; experiment: NCI60 one-dose screen (10 μM), CNS Cancer; assay type: cell-based, human; details: Homo sapiens; 10 μM; SNB-75, CNS Cancer; read-out: Growth percent rate
# [4] = system: OVCAR-3; experiment: NCI60 one-dose screen (10 μM), Ovarian Cancer; assay type: cell-based; details: Homo sapiens; 10 μM; OVCAR-3, Ovarian Cancer; read-out: Growth percent rate
# [5] = system: SK-MEL-28; experiment: NCI60 one-dose screen (10 μM), Melanoma; assay type: cell-based; details: Homo sapiens; 10 μM; SK-MEL-28, Melanoma; read-out: Growth percent rate
# [6] = system: HOP-62; experiment: NCI60 one-dose screen (10 μM), Non-small Cell Lung Cancer; assay type: cell-based; details: Homo sapiens; 10 μM; HOP-62, Non-small Cell Lung Cancer; read-out: Growth percent rate
# [7] = system: MOLT-4; experiment: NCI60 one-dose screen (10 μM), Leukemia; assay type: cell-based, human; details: for activity at 10 µM: Homo sapiens, MOLT-4, Leukemia, read-out: Growth percent rate
# [8] = system: CAKI-1; experiment: NCI60 one-dose screen (10 μM), Renal Cancer; assay type: cell-based; details: Homo sapiens; 10 μM; CAKI-1, Renal Cancer; read-out: Growth percent rate
# [9] = system: CCRF-CEM; experiment: NCI60 one-dose screen (10 μM), Leukemia; assay type: cell-based; details: Homo sapiens, 10 μM, Leukemia, read-out: Growth percent rate
# [10] = system: DU-145; experiment: NCI60 one-dose screen (10 μM), Prostate Cancer; assay type: cell-based; details: Homo sapiens; 10 μM; DU-145, Prostate Cancer; read-out: Growth percent rate
# [11] = system: IGROV1; experiment: NCI60 one-dose screen (10 μM), Ovarian Cancer; assay type: cell-based; details: Homo sapiens, IGROV-1; 10 μM; IGROV1, Ovarian Cancer; read-out: Growth percent rate
# [12] = system: RPMI-8226; experiment: NCI60 one-dose screen (10 μM), Leukemia; assay type: cell-based; details: Homo sapiens; 10 μM; RPMI-8226, Leukemia; read-out: Growth percent rate
# [13] = system: SF-268; experiment: NCI60 one-dose screen (10 μM), CNS Cancer; assay type: cell-based; details: Homo sapiens; 10 μM; SF-268, CNS Cancer; read-out: Growth percent rate
# [14] = system: NCI-H522; experiment: NCI60 one-dose screen (10 μM), Non-small Cell Lung Cancer; assay type: cell-based; details: Homo sapiens; 10 μM; NCI-H522, Non-small Cell Lung Cancer; read-out: Growth percent rate
# [15] = system: SF-539; experiment: NCI60 one-dose screen (10 μM), CNS Cancer; assay type: cell-based, human; details: Homo sapiens; 10 μM; SF-539, CNS Cancer; read-out: Growth percent rate
# [16] = system: K-562; experiment: NCI60 one-dose screen (10 μM), Leukemia; assay type: cell-based; details: Homo sapiens, K562; 10 μM; K-562, Leukemia; read-out: Growth percent rate
# [17] = system: HS 578T; experiment: NCI60 one-dose screen (10 μM), Breast Cancer; assay type: cell-based; details: Homo sapiens; 10 μM; HS 578T, Breast Cancer; read-out: Growth percent rate
# [18] = system: OVCAR-4; experiment: NCI60 one-dose screen (10 μM), Ovarian Cancer; assay type: cell-based; details: Homo sapiens; 10 μM; OVCAR-4, Ovarian Cancer; read-out: Growth percent rate
# [19] = system: COLO 205; experiment: NCI60 one-dose screen (10 μM), Colon Cancer; assay type: cell-based, human; details: Homo sapiens; 10 μM; COLO 205, Colon Cancer; read-out: Growth percent rate
# [20] = system: NCI-H322M; experiment: NCI60 one-dose screen (10 μM), Non-small Cell Lung Cancer; assay type: cell-based; details: Homo sapiens, 10 μM, Non-small Cell Lung Cancer, read-out: Growth percent rate
# [21] = system: 60 human tumor cell lines (NCI60); experiment: NCI60 one-dose screen (10 μM), whole panel; assay type: cell-based; details: for activity at 10 µM: mean over 60 human cancer cell lines, read-out: Growth percent rate, Mean
# [22] = system: HL-60(TB); experiment: NCI60 one-dose screen (10 μM), Leukemia; assay type: cell-based; details: Homo sapiens; 10 μM; HL-60(TB), Leukemia; read-out: Growth percent rate
# [23] = system: EKVX; experiment: NCI60 one-dose screen (10 μM), Non-small Cell Lung Cancer; assay type: cell-based; details: Homo sapiens, 10 μM, Non-small Cell Lung Cancer, read-out: Growth percent rate
# [24] = system: MDA-MB-435; experiment: NCI60 one-dose screen (10 μM), Melanoma; assay type: cell-based; details: Homo sapiens; 10 μM; MDA-MB-435, Melanoma; read-out: Growth percent rate
# [25] = system: HCC-2998; experiment: NCI60 one-dose screen (10 μM), Colon Cancer; assay type: cell-based; details: Homo sapiens; 10 μM; HCC-2998, Colon Cancer; read-out: Growth percent rate
# [26] = system: ACHN; experiment: NCI60 one-dose screen (10 μM), Renal Cancer; assay type: cell-based; details: Homo sapiens, 10 μM, Renal Cancer, read-out: Growth percent rate
# [27] = system: NCI-H460; experiment: NCI60 one-dose screen (10 μM), Non-small Cell Lung Cancer; assay type: cell-based; details: Homo sapiens; 10 μM; NCI-H460, Non-small Cell Lung Cancer; read-out: Growth percent rate
# [28] = system: M14; experiment: NCI60 one-dose screen (10 μM), Melanoma; assay type: cell-based; details: Homo sapiens; 10 μM; M14, Melanoma; read-out: Growth percent rate
# [29] = system: NCI-H23; experiment: NCI60 one-dose screen (10 μM), Non-small Cell Lung Cancer; assay type: cell-based; details: Homo sapiens; 10 μM; NCI-H23, Non-small Cell Lung Cancer; read-out: Growth percent rate
# [30] = system: OVCAR-8; experiment: NCI60 one-dose screen (10 μM), Ovarian Cancer; assay type: cell-based; details: Homo sapiens; 10 μM; OVCAR-8, Ovarian Cancer; read-out: Growth percent rate
# [31] = system: SN12C; experiment: NCI60 one-dose screen (10 μM), Renal Cancer; assay type: cell-based; details: Homo sapiens, 10 μM, Renal Cancer, read-out: Growth percent rate
# [32] = system: HT29; experiment: NCI60 one-dose screen (10 μM), Colon Cancer; assay type: cell-based; details: Homo sapiens, HT-29; 10 μM; HT29, Colon Cancer; read-out: Growth percent rate
# [33] = system: SK-MEL-2; experiment: NCI60 one-dose screen (10 μM), Melanoma; assay type: cell-based; details: Homo sapiens; 10 μM; SK-MEL-2, Melanoma; read-out: Growth percent rate
# [34] = system: U251; experiment: NCI60 one-dose screen (10 μM), CNS Cancer; assay type: cell-based; details: Homo sapiens, U-251; 10 μM; U251, CNS Cancer; read-out: Growth percent rate
# [35] = system: 786–0; experiment: NCI60 one-dose screen (10 μM), Renal Cancer; assay type: cell-based; details: Homo sapiens; 10 μM; 786-0, Renal Cancer; read-out: Growth percent rate
# [36] = system: HCT-15; experiment: NCI60 one-dose screen (10 μM), Colon Cancer; assay type: cell-based; details: Homo sapiens; 10 μM; HCT-15, Colon Cancer; read-out: Growth percent rate
# [37] = system: A498; experiment: NCI60 one-dose screen (10 μM), Renal Cancer; assay type: cell-based; details: Homo sapiens; 10 μM; A498, Renal Cancer; read-out: Growth percent rate
# [38] = system: SK-MEL-5; experiment: NCI60 one-dose screen (10 μM), Melanoma; assay type: cell-based, human; details: Homo sapiens; 10 μM; SK-MEL-5, Melanoma; read-out: Growth percent rate
# [39] = system: HCT-116; experiment: NCI60 one-dose screen (10 μM), Colon Cancer; assay type: cell-based; details: Homo sapiens; 10 μM; HCT-116, Colon Cancer; read-out: Growth percent rate
# [40] = system: A549/ATCC; experiment: NCI60 one-dose screen (10 μM), Non-small Cell Lung Cancer; assay type: cell-based; details: Homo sapiens; 10 μM; A549/ATCC, Non-small Cell Lung Cancer; read-out: Growth percent rate
# [41] = system: MCF7; experiment: NCI60 one-dose screen (10 μM), Breast Cancer; assay type: cell-based; details: Homo sapiens; 10 μM; MCF7, Breast Cancer; read-out: Growth percent rate
# [42] = system: SW-620; experiment: NCI60 one-dose screen (10 μM), Colon Cancer; assay type: cell-based; details: Homo sapiens; 10 μM; SW-620, Colon Cancer; read-out: Growth percent rate
smiles,measurement,setting,value
CC[C@]12C=CCN3CC[C@@]4(c5ccc(OC)cc5N(C)[C@H]4[C@@](O)(C(=O)OC)[C@@H]1OC(=O)CCC(=O)N1CCN(C(c4ccc(F)cc4)c4ccc(F)cc4)CC1)[C@@H]32 [Compound 31],activity at 10 µM,[1],-56.3%
same,activity at 10 µM,[2],-30.8%
same,activity at 10 µM,[3],-43.5%
same,activity at 10 µM,[4],-71%
same,activity at 10 µM,[5],-6.67%
same,activity at 10 µM,[6],-57%
same,growth percent rate,"[7]; 10 μM one-dose, MOLT-4 leukemia, negative = lethality",−98.81%
same,activity at 10 µM,[7],-98.8%
same,activity at 10 µM,[8],1.73%
same,activity at 10 µM,[9],-81.9%
same,activity at 10 µM,[10],-3.52%
same,activity at 10 µM,[11],-92.2%
same,activity at 10 µM,[12],-98.1%
same,activity at 10 µM,[13],7.32%
same,activity at 10 µM,[14],-22.2%
same,activity at 10 µM,[15],-38.4%
same,activity at 10 µM,[16],7.65%
same,activity at 10 µM,[17],-32.6%
same,activity at 10 µM,[18],-34.6%
same,activity at 10 µM,[19],-45%
same,activity at 10 µM,[20],-0.86%
same,activity at 10 µM,[21],-41.8%
same,activity at 10 µM,[22],-98.4%
same,activity at 10 µM,[23],-17.8%
same,activity at 10 µM,[24],-23.3%
same,activity at 10 µM,[25],-66.9%
same,activity at 10 µM,[26],-35.8%
same,activity at 10 µM,[27],-60.9%
same,activity at 10 µM,[28],0.99%
same,activity at 10 µM,[29],-23.4%
same,activity at 10 µM,[30],-13.2%
same,activity at 10 µM,[31],-89.1%
same,activity at 10 µM,[32],-83.3%
same,activity at 10 µM,[33],-85.4%
same,activity at 10 µM,[34],-15.1%
same,activity at 10 µM,[35],-40.3%
same,activity at 10 µM,[36],3.11%
same,activity at 10 µM,[37],-61.6%
same,activity at 10 µM,[38],-88%
same,activity at 10 µM,[39],-32.4%
same,activity at 10 µM,[40],1.83%
same,activity at 10 µM,[41],-28.7%
same,activity at 10 µM,[42],-37%
"CCC12C=CCN3CCC4(c5ccc(OC)cc5N(C)C4C(O)(C(=O)OC)C1OC(=O)CCC(=O)O)C32 (centres unmarked) [Compound 15, 17-(O-3-carboxypropanoyl)vindoline]",activity at 10 µM,[1],96.6%
same,activity at 10 µM,[2],91.5%
same,activity at 10 µM,[3],53.4%
same,activity at 10 µM,[4],74.9%
same,activity at 10 µM,[5],86.7%
same,activity at 10 µM,[6],102%
same,activity at 10 µM,[7],106%
same,activity at 10 µM,[8],95.5%
same,activity at 10 µM,[9],105%
same,activity at 10 µM,[10],98.1%
same,activity at 10 µM,[11],90%
same,activity at 10 µM,[12],84.2%
same,activity at 10 µM,[13],87.2%
same,activity at 10 µM,[14],84.2%
same,activity at 10 µM,[15],92.9%
same,activity at 10 µM,[16],90.5%
same,activity at 10 µM,[17],69.3%
same,activity at 10 µM,[18],80.2%
same,activity at 10 µM,[19],93.6%
same,activity at 10 µM,[20],73.9%
same,antiproliferative effect (in words),"[21]; 10 μM one-dose, NCI60",a notable antiproliferative effect was not shown
same,activity at 10 µM,[21],91.7%
same,activity at 10 µM,[22],114%
same,activity at 10 µM,[23],87.4%
same,activity at 10 µM,[24],110%
same,activity at 10 µM,[25],71%
same,activity at 10 µM,[26],102%
same,activity at 10 µM,[27],97.4%
same,activity at 10 µM,[28],96.5%
same,activity at 10 µM,[29],92.5%
same,activity at 10 µM,[30],91.8%
same,activity at 10 µM,[31],92.9%
same,activity at 10 µM,[32],89.9%
same,activity at 10 µM,[33],100%
same,activity at 10 µM,[34],105%
same,activity at 10 µM,[35],98.1%
same,activity at 10 µM,[36],98.4%
same,activity at 10 µM,[37],90.6%
same,activity at 10 µM,[38],96.8%
same,activity at 10 µM,[39],98.6%
same,activity at 10 µM,[40],94.3%
same,activity at 10 µM,[41],68.2%
same,activity at 10 µM,[42],102%
